{
  "source": "patent US20200170975A1",
  "about": "(Strongbridge Dublin Limited, priority 2018, published 2020)",
  "key": {"OAT4": {"molecular_target": "T1, OAT4 (Homo sapiens, UniProt Q9NSA0)", "T1 construct": "expressed in transfected cells; host or cells: S2 cells", "T1 sequence (Q9NSA0 1-550)": "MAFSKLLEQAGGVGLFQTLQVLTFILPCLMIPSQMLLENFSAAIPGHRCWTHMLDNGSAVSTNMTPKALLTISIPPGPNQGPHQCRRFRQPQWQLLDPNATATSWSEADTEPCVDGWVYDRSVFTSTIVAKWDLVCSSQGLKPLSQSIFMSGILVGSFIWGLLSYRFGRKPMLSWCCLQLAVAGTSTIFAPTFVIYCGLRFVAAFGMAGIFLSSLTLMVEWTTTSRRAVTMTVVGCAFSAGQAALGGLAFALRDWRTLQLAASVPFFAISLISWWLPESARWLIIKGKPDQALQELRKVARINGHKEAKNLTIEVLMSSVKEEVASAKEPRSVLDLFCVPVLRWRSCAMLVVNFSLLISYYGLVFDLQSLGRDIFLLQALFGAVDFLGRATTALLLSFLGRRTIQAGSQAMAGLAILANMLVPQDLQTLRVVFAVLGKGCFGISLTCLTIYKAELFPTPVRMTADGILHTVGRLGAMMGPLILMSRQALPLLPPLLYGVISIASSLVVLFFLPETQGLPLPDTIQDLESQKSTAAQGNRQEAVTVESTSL", "assay": "OAT4 inhibition: accumulation of [3H]-estrone-3-sulfate in S2 cells", "format": "in vitro ADME", "procedure": "Schneider 2 (S2) cells are a commonly used Drosophila melanogaster cell lines from a primary culture of late stage (20-24 hours old) embryos from a macrophage-like lineage. S2 cells are used to express heterologous proteins, to produce proteins on a large scale, and to easily and transiently transfect with several plasmids at once to study protein interactions.\n[^14C]-Metformin (1 mM) was provided as a solid and was prepared in Hank's balanced salt solution (HBSS)."}, "P-gp": {"molecular_target": "P-gp (Homo sapiens, UniProt P08183)", "sequence (P08183 whole entry)": "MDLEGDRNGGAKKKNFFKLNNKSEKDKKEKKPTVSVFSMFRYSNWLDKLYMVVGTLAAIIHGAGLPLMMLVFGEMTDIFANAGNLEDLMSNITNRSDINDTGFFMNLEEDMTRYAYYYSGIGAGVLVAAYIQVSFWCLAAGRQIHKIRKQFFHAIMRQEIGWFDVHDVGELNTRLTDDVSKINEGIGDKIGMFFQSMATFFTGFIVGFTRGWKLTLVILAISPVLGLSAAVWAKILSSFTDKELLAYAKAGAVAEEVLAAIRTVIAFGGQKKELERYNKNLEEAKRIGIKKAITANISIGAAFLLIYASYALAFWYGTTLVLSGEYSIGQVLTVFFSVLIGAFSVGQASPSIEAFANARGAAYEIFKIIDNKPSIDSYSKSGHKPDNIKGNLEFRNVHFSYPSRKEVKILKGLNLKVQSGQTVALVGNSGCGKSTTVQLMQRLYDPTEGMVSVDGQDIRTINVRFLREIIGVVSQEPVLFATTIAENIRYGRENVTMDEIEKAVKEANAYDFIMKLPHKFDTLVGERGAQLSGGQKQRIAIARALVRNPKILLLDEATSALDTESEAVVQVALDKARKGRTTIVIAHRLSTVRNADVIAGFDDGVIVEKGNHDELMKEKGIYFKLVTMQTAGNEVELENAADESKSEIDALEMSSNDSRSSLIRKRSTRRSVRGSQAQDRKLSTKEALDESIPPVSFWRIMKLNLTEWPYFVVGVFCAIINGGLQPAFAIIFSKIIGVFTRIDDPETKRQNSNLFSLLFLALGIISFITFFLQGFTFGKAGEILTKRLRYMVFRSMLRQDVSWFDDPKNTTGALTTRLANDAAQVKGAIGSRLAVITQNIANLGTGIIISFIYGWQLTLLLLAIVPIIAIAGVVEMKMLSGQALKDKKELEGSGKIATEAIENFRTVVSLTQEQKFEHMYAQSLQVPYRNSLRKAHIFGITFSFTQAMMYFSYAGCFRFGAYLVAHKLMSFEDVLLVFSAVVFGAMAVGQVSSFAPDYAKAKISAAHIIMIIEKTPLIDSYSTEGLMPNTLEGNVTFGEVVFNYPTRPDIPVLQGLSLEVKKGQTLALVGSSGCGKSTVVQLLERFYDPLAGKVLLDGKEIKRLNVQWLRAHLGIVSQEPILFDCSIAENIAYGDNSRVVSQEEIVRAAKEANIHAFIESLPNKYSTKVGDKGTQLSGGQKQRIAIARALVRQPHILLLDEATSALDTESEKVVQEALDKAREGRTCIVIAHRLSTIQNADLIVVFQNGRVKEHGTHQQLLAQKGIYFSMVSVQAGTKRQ"}, "BCRP": {"molecular_target": "T2, BCRP (Homo sapiens, UniProt Q9UNQ0)", "T2 sequence (Q9UNQ0 1-655)": "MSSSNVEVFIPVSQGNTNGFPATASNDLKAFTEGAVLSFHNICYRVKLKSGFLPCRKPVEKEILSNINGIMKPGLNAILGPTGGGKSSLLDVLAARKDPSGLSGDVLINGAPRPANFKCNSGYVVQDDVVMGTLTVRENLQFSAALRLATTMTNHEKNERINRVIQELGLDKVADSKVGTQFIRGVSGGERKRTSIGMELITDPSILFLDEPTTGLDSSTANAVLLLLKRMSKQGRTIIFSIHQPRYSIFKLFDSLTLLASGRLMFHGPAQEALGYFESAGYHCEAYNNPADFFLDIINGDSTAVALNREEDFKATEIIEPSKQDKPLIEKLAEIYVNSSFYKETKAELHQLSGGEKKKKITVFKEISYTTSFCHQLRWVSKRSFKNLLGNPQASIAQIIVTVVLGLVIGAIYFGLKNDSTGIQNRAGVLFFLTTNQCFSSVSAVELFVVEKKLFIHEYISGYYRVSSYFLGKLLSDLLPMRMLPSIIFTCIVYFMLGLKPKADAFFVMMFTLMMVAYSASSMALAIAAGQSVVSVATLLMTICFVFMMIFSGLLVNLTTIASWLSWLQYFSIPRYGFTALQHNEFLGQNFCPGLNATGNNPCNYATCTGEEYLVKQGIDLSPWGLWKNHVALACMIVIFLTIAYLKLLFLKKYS", "assay": "BCRP inhibition: bidirectional transport of prazosin across MDCKII-BCRP and control MDCKII cells", "details": "for Recovery (%) A:B / Recovery (%) B:A / % control: 120 min", "from_the_text": "MDCKII P-gp, MDCKII BCRP and control MDCKII cells were purchased from the Netherlands Cancer Institute."}, "OCT1": {"molecular_target": "T3, OCT1 (Homo sapiens, UniProt O15245)", "T3 sequence (O15245 1-554)": "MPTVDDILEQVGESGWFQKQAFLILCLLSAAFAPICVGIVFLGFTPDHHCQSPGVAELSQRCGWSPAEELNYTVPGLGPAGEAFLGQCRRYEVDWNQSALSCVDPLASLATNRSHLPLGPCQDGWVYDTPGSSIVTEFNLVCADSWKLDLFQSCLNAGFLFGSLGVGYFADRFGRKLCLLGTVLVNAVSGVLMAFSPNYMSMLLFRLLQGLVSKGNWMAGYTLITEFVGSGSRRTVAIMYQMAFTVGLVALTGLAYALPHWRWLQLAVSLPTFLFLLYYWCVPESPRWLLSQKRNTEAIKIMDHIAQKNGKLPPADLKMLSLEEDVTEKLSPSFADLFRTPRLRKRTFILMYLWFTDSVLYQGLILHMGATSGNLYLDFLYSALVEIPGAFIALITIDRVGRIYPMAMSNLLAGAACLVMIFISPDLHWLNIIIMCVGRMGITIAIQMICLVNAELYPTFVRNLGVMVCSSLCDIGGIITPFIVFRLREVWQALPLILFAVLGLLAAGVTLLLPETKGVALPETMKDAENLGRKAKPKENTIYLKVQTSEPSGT", "details": "for Uptake, OCT1 (Average ± SD): OCT1 HEK293 cells; for Uptake, OCT1 (Average ± SD) / % control / Background corrected uptake rate / Uptake, Control (Average ± SD): [14C]-TEA bromide 5 μM; for Uptake, Control (Average ± SD): control HEK293 cells"}},
  "note": "Read-outs that look alike come from different tables or passages of the source.",
  "data": [
    {"smiles": "NS(=O)(=O)c1cc(Cl)c(Cl)c(S(N)(=O)=O)c1", "note": "[Dichlorphenamide, 4,5-dichloro-1,3-benzenedisulfonamide]", "values": [
      {"measurement": "IC50", "setting": "OAT4", "value": "> 1000", "unit": "µM"},
      {"measurement": "IC50", "setting": "P-gp", "value": "> 1000", "unit": "µM"},
      {"measurement": "IC50", "setting": "BCRP", "value": "> 1000", "unit": "µM"},
      {"measurement": "Recovery (%) A:B", "setting": "BCRP; dog, MDCK, 1000 μM", "value": 84.7, "unit": "%"},
      {"measurement": "Recovery (%) B:A", "setting": "BCRP; dog, MDCK, 1000 μM", "value": 77.0, "unit": "%"},
      {"measurement": "% control", "setting": "BCRP; human, 3 μM", "value": 124, "unit": "%"},
      {"measurement": "% control", "setting": "BCRP; human, 10 μM", "value": 91.4, "unit": "%"},
      {"measurement": "% control", "setting": "BCRP; human, 30 μM", "value": 83.3, "unit": "%"},
      {"measurement": "% control", "setting": "BCRP; human, 100 μM", "value": 91.2, "unit": "%"},
      {"measurement": "% control", "setting": "BCRP; human, 300 μM", "value": 91.9, "unit": "%"},
      {"measurement": "% control", "setting": "BCRP; human, 1000 μM", "value": 60.0, "unit": "%"},
      {"measurement": "Recovery (%) A:B", "setting": "BCRP; human, 1000 μM", "value": 93.0, "unit": "%"},
      {"measurement": "Recovery (%) B:A", "setting": "BCRP; human, 1000 μM", "value": 83.7, "unit": "%"},
      {"measurement": "Uptake, OCT1 (Average ± SD)", "setting": "OCT1; inhibitor 1 μm", "value": "121 ± 11", "unit": "pmol/mg protein"},
      {"measurement": "Uptake, OCT1 (Average ± SD)", "setting": "OCT1; inhibitor 3 μm", "value": "125 ± 5", "unit": "pmol/mg protein"},
      {"measurement": "Uptake, OCT1 (Average ± SD)", "setting": "OCT1; inhibitor 10 μm", "value": "111 ± 4", "unit": "pmol/mg protein"},
      {"measurement": "Uptake, OCT1 (Average ± SD)", "setting": "OCT1; inhibitor 30 μm", "value": "122 ± 14", "unit": "pmol/mg protein"},
      {"measurement": "Uptake, OCT1 (Average ± SD)", "setting": "OCT1; inhibitor 100 μm", "value": "128 ± 6", "unit": "pmol/mg protein"},
      {"measurement": "Uptake, OCT1 (Average ± SD)", "setting": "OCT1; inhibitor 300 μm", "value": "130 ± 10", "unit": "pmol/mg protein"},
      {"measurement": "Uptake, OCT1 (Average ± SD)", "setting": "OCT1; inhibitor 1000 μm", "value": "77.9 ± 3.0", "unit": "pmol/mg protein"},
      {"measurement": "% control", "setting": "OCT1; inhibitor 1 μm", "value": 98.6, "unit": "%"},
      {"measurement": "Background corrected uptake rate", "setting": "OCT1; inhibitor 1 μm", "value": 7.76, "unit": "pmol/mg/min"},
      {"measurement": "% control", "setting": "OCT1; inhibitor 3 μm", "value": 102, "unit": "%"},
      {"measurement": "Background corrected uptake rate", "setting": "OCT1; inhibitor 3 μm", "value": 8.07, "unit": "pmol/mg/min"},
      {"measurement": "% control", "setting": "OCT1; inhibitor 10 μm", "value": 90.6, "unit": "%"},
      {"measurement": "Background corrected uptake rate", "setting": "OCT1; inhibitor 10 μm", "value": 7.13, "unit": "pmol/mg/min"},
      {"measurement": "% control", "setting": "OCT1; inhibitor 30 μm", "value": 99.7, "unit": "%"},
      {"measurement": "Background corrected uptake rate", "setting": "OCT1; inhibitor 30 μm", "value": 7.85, "unit": "pmol/mg/min"},
      {"measurement": "% control", "setting": "OCT1; inhibitor 100 μm", "value": 105, "unit": "%"},
      {"measurement": "Background corrected uptake rate", "setting": "OCT1; inhibitor 100 μm", "value": 8.26, "unit": "pmol/mg/min"},
      {"measurement": "% control", "setting": "OCT1; inhibitor 300 μm", "value": 107, "unit": "%"},
      {"measurement": "Background corrected uptake rate", "setting": "OCT1; inhibitor 300 μm", "value": 8.40, "unit": "pmol/mg/min"},
      {"measurement": "% control", "setting": "OCT1; inhibitor 1000 μm", "value": 63.5, "unit": "%"},
      {"measurement": "Background corrected uptake rate", "setting": "OCT1; inhibitor 1000 μm", "value": 5.00, "unit": "pmol/mg/min"},
      {"measurement": "Uptake, Control (Average ± SD)", "setting": "OCT1; inhibitor 1 μm", "value": "4.28 ± 1.48", "unit": "pmol/mg protein"},
      {"measurement": "Uptake, Control (Average ± SD)", "setting": "OCT1; inhibitor 3 μm", "value": "4.44 ± 1.97", "unit": "pmol/mg protein"},
      {"measurement": "Uptake, Control (Average ± SD)", "setting": "OCT1; inhibitor 10 μm", "value": "4.28 ± 0.92", "unit": "pmol/mg protein"},
      {"measurement": "Uptake, Control (Average ± SD)", "setting": "OCT1; inhibitor 30 μm", "value": "3.88 ± 0.48", "unit": "pmol/mg protein"},
      {"measurement": "Uptake, Control (Average ± SD)", "setting": "OCT1; inhibitor 100 μm", "value": "4.12 ± 0.73", "unit": "pmol/mg protein"},
      {"measurement": "Uptake, Control (Average ± SD)", "setting": "OCT1; inhibitor 300 μm", "value": "3.88 ± 1.11", "unit": "pmol/mg protein"},
      {"measurement": "Uptake, Control (Average ± SD)", "setting": "OCT1; inhibitor 1000 μm", "value": "2.99 ± 1.46", "unit": "pmol/mg protein"},
      {"measurement": "IC50", "setting": "OCT1; human, pH 7.4", "value": "> 1000", "unit": "µM"}
    ]}
  ]
}
